Data as given in patent US9695127B2, “Compounds for treating HIV and methods for using the compounds” (University of Pittsburgh—Of the Commonwealth System of …, priority 2012, dated 2017).

Tests used:
[1] = system: HIV-1 NL4-3; assay: HIV-1 infectivity in TZM-b1 reporter cells (luciferase); assay type: cell-based; details: for inhibition at 3 µM: Human immunodeficiency virus 1, NL43, TZM-b1, 48 h, read-out: INFECTIVITY @ 3 μM % Inhibition vs. DMSO control; for INFECTIVITY @ 3 μM % Inhibition vs. DMSO control: TZM-b1 reporter cells
Description: Compounds (1 μM) shown in FIG. 7 were added to cultures of U87MG and CEM-T4 cells in 96-well plates, followed by infection with wild-type HIV-1 NL4-3 (50 pg p24 equivalents/ml) 1 hour later. […] Virus replication was assessed by p24 ELISA after 4 days (U87MG) or 9 days (CEM-T4). Data are expressed as the mean percent inhibition as compared to control cultures incubated with the carrier solvent (DMSO)±S.E.M. (n=4). […] FIG. 9 concerns infectivity assays. Compounds (3 μM) were added to cultures of the reporter cell line TZM-b1 followed by infection with either wild-type or Nef-defective (ΔNef) HIV NL4-3 in 96-well plates. After 48 hours, relative virus infectivity was assessed as luciferase production in infected cells. […]
HIV assays: Viral stocks were prepared by transfection of 293T cells (ATCC) with wild-type and Nef-defective (ΔNef) proviral genomes (NL4—3 strain) and amplified in the T-cell line, MT2 (NIH AIDS Research and Reference Reagent Program). Viral replication was assessed in the U87MG astroglioma cell line engineered to express the HIV-1 co-receptors CD4 and CXCR4 or in the T-lymphoblast cell line, CEM-T4. […] Compounds were solubilized in DMSO, and added to the cell culture medium 1 h prior to infection with HIV. Viral replication was monitored for either 4 days (U87MG) or 9 days (CEM-T4) by measuring p24 Gag protein levels in the culture supernatant using standard ELISA-based techniques. HIV-1 infectivity was measured using the reporter cell line, TZM-b1 (NM AIDS Research and Reference Reagent Program). Cells were grown in 96-well plates (2.5×10^4) 8 h prior to virus infection to permit adherence. Compounds were pre-incubated with wild-type HIV-1 for 4 h prior to addition to the cells in a final volume of 200 μl. After 48 h at 37° C., the cells were washed with PBS and lysed in luciferase lysis buffer (Promega) by rocking for 15 min Lysates (40 μl) were transferred to white 96-well plates and 50 μl luciferase reagent (Promega) was injected into each well. Readings were recorded with a delay time of 2 sec and an integration period of 10 sec.

[2] = system: wild-type HIV-1 NL4-3; assay: HIV-1 replication in U87MG cells (p24 ELISA); assay type: cell-based; details: for inhibition at 3 µM: Human immunodeficiency virus 1, NL43, U-87 MG, 96 h, read-out: REPLICATION @ 3 μM % Inhibition vs. DMSO control; for REPLICATION @ 3 μM % Inhibition vs. DMSO control: U87MG cells
Source text: In particular disclosed embodiments, the compound may be used to block Nef-dependent HIV replication and infectivity. FIG. 7 illustrates the chemical structures of the compounds identified by the Nef:Hck HTS campaign and subsequently shown to block Nef-dependent enhancement of HIV-1 replication in two different cell lines are shown, along with the IC50 values for each compound against Hck alone vs. the Nef:Hck complex. FIG. 8 illustrates results concerning HIV replication. […] Viral output for the DMSO-treated control cultures was consistently greater than 100-fold over the HIV input, typically ranging from 9,000-12,000 p24 equivalents/ml. Virus replication was assessed by p24 ELISA after 4 days (U87MG) or 9 days (CEM-T4). Data are expressed as the mean percent inhibition as compared to control cultures incubated with the carrier solvent (DMSO)±S.E.M. (n=4). Results of replication and cytotoxicity experiments with all certain hit compounds from the primary screen are shown in FIG. 3 and FIG. 4. FIG. 9 concerns infectivity assays. Compounds (3 μM) were added to cultures of the reporter cell line TZM-b1 followed by infection with either wild-type or Nef-defective (ΔNef) HIV NL4-3 in 96-well plates. After 48 hours, relative virus infectivity was assessed as luciferase production in infected cells. Results are plotted as the mean percent of HIV-1 infectivity observed in control cells incubated with the carrier solvent DMSO±S.E.M. (n=3). In the absence of Nef, infectivity is reduced by about 50% (ΔNef; dashed line shown for reference).
HIV assays: Viral stocks were prepared by transfection of 293T cells (ATCC) with wild-type and Nef-defective (ΔNef) proviral genomes (NL4—3 strain) and amplified in the T-cell line, MT2 (NIH AIDS Research and Reference Reagent Program). Viral replication was assessed in the U87MG astroglioma cell line engineered to express the HIV-1 co-receptors CD4 and CXCR4 or in the T-lymphoblast cell line, CEM-T4. Both the U87 MG and CEM-T4 cell lines support HIV-1 replication in a Nef-dependent manner, and were obtained from the NM AIDS Research and Reference Reagent Program. Compounds were solubilized in DMSO, and added to the cell culture medium 1 h prior to infection with HIV. Viral replication was monitored for either 4 days (U87MG) or 9 days (CEM-T4) by measuring p24 Gag protein levels in the culture supernatant using standard ELISA-based techniques. HIV-1 infectivity was measured using the reporter cell line, TZM-b1 (NM AIDS Research and Reference Reagent Program). Cells were grown in 96-well plates (2.5×10^4) 8 h prior to virus infection to permit adherence. Compounds were pre-incubated with wild-type HIV-1 for 4 h prior to addition to the cells in a final volume of 200 μl. After 48 h at 37° C., the cells were washed with PBS and lysed in luciferase lysis buffer (Promega) by rocking for 15 min Lysates (40 μl) were transferred to white 96-well plates and 50 μl luciferase reagent (Promega) was injected into each well. Readings were recorded with a delay time of 2 sec and an integration period of 10 sec.

Row | SMILES | inhibition at 3 µM [1] | also measured
1 | Nc1c(Cc2cccc(Cl)c2)c(-c2ccc(F)cc2)nn1C1=NCCN1 [DD-1-30] | 0% | –
2 | Oc1[nH]nc(-c2ccc(F)cc2)c1/N=N/c1cncc(Cl)c1 [JZ-1-110-2] | 0% | inhibition at 3 µM [2]: 19.3%
3 | COc1ccc(-c2nn(C(N)=S)c(O)c2/N=N/c2cccc(Cl)c2)cc1 [JZ-1-62] | 9.3% | –
4 | N=C(N)n1nc(-c2ccc([N+](=O)[O-])cc2)cc1O [JV-1-62-2-2] | 0% | –
5 | COc1ccc(-c2nn(C3=NCCN3)c(O)c2CCc2ccc(F)cc2)cc1 [JV-1-74-2] | 36.7% | inhibition at 3 µM [2]: 46.8%
6 | N=C(N)n1nc(-c2ccc([N+](=O)[O-])cc2)c(Cc2cccc(Cl)c2)c1O [JV-2-10] | 3% | –
7 | COc1ccc(-c2nn(C(=N)N3CCOCC3)c(O)c2CCc2ccc(F)cc2)cc1 [JZ-1-154-2-2] | 0% | –
8 | COc1ccc(-c2nn(-c3ccccc3)c(OC)c2CCc2ccc(F)cc2)cc1 [JV-1-81] | 19.7% | –
9 | Oc1c(Cc2ccc(F)cc2)c(-c2ccc(F)cc2)nn1C1=NCCN1 [JZ-1-176] | 7.7% | –
10 | N=C(N)n1nc(-c2ccoc2)c(CCc2ccc(F)cc2)c1O [JV-1-96] | – | REPLICATION @ 3 μM % Inhibition vs. DMSO control [2]: Toxic; INFECTIVITY @ 3 μM % Inhibition vs. DMSO control [1]: 11.0%
11 | NC(=S)n1nc(-c2ccc([N+](=O)[O-])cc2)cc1O [JZ-1-94] | 0% | –
12 | Oc1c(Cc2ccc(F)cc2)c(-c2ccc(F)cc2)nn1-c1ccccn1 [JZ-1-178] | 34.7% | inhibition at 3 µM [2]: 0%
13 | COc1ccc(-c2nn(-c3ccccc3)c(O)c2CCc2ccc(F)cc2)cc1 [JV-1-79] | – | REPLICATION @ 3 μM % Inhibition vs. DMSO control [2]: Toxic; INFECTIVITY @ 3 μM % Inhibition vs. DMSO control [1]: Toxic
14 | COc1cccc(/N=N/c2c(-c3ccc([N+](=O)[O-])cc3)nn(C(N)=S)c2O)c1 [JZ-1-56] | 0% | –
15 | COc1ccc(-c2nn(C(=N)N)c(O)c2Cc2cccc(Cl)c2)cc1 [DD-1-27] | 0% | –
16 | NC(=O)n1nc(-c2ccc(F)cc2)c(/N=N/c2cccnc2)c1O [JZ-1-101] | 0% | inhibition at 3 µM [2]: 0%
17 | Oc1[nH]nc(-c2ccc(C(F)(F)F)cc2)c1Cc1ccc(F)cc1 [JZ-1-179-2] | 0% | –
18 | NC(=O)n1nc(-c2ccc(F)cc2)c(/N=N/c2cncc(Cl)c2)c1O [JZ-1-106] | 3.5% | inhibition at 3 µM [2]: 0%
19 | COc1cccc(Cc2c(-c3ccc(F)cc3)nn(C(=N)N)c2O)c1 [EAF-1-22] | 0% | –
20 | NC(=S)n1nc(-c2ccc(C(F)(F)F)cc2)c(/N=N/c2cccc(Cl)c2)c1O [JZ-1-64] | 26.5% | –
21 | Cc1c(Cc2cccc(Cl)c2)c(-c2ccccc2)nn1C(=N)N [DD-1-26] | 0% | –
22 | COc1ccc(-c2n[nH]c(O)c2CCc2cccc(Cl)c2)cc1 [JV-1-59-1] | 0% | inhibition at 3 µM [2]: 30.1%
23 | COc1ccc(-c2nn(-c3ccccc3)c(OC)c2/C=C/c2ccccc2)cc1 [JZ-1-145-1] | 0% | –
24 | Oc1c(Cc2cccc(Cl)c2)c(-c2ccc(C(F)(F)F)cc2)nn1C1=NCCN1 [JV-2-14] | 54.7% | –
25 | N=C(N)n1nc(-c2ccc(C(F)(F)F)cc2)c(Cc2ccc(F)cc2)c1O [JZ-1-177] | 0% | –
26 | NC(=S)n1nc(-c2ccc([N+](=O)[O-])cc2)c(/N=N/c2ccccc2Cl)c1O [KM-1-48] | 19.3% | –

Row | SMILES | inhibition at 3 µM [1] | also measured
27 | COc1ccc(-c2nn(C3=NCCN3)c(O)c2CCc2cccc(OC)c2)cc1 [JV-1-71-1] | 25.2% | –
28 | N=C(N1CCOCC1)n1nc(-c2ccc(C(F)(F)F)cc2)c(Cc2ccc(F)cc2)c1O [JZ-1-180] | 0% | –
29 | O=[N+]([O-])c1ccc(-c2n[nH]c(O)c2Cc2ccc(F)cc2)cc1 [JV-2-13] | 1.7% | –
30 | N=C(N)n1nc(-c2ccc(F)cc2)c(Cc2cccc(Cl)c2)c1N [JV-2-19] | 0% | –
31 | Oc1[nH]nc(-c2ccccc2)c1/N=N/c1ccccc1 [JZ-1-58-2] | 1.7% | –
32 | NC(=S)n1nc(-c2ccc([N+](=O)[O-])cc2)c(/N=N/c2ccc(Cl)cc2)c1O [KM-1-46] | 37.2% | inhibition at 3 µM [2]: 43.6%
33 | COc1ccc(/N=N/c2c(-c3ccc([N+](=O)[O-])cc3)n[nH]c2O)cc1 [JZ-1-50] | 28.9% | –
34 | NC(=S)n1nc(-c2ccccc2)c(/N=N/c2ccccc2)c1O [JZ-1-58-3] | 7.3% | –
35 | Oc1[nH]nc(-c2ccc(F)cc2)c1/N=N/c1cccnc1 [JZ-1-110-1] | 3.3% | inhibition at 3 µM [2]: 0%
36 | COc1ccc(-c2nn(C(=N)N)c(O)c2CCc2cccc(OC)c2)cc1 [JV-1-67-1] | 0% | –
37 | N=C(N)n1nc(C2CC2)c(CCc2ccc(F)cc2)c1O [JV-1-89] | – | REPLICATION @ 3 μM % Inhibition vs. DMSO control [2]: 56.1%; INFECTIVITY @ 3 μM % Inhibition vs. DMSO control [1]: 28.0%
38 | N=C(N)n1nc(-c2ccc(F)cc2)c(Cc2ccc(F)cc2)c1O [JZ-1-175] | 0% | –
39 | C(=C\c1c[nH]nc1-c1ccccc1)/c1ccccc1 [Vit-3f] | 0% | –
40 | COc1ccc(-c2n[nH]c(O)c2CCc2ccc(F)cc2)cc1 [JV-1-75-1] | 0% | –
41 | COc1ccc(-c2nn(-c3ccccc3)c(OC)c2/C=C/c2cccc(F)c2)cc1 [JZ-1-146-1] | 0% | –
42 | O=[N+]([O-])c1ccc(-c2nn(C3=NCCN3)c(O)c2Cc2ccc(F)cc2)cc1 [JZ-1-171] | 0% | –
43 | N=C(N)n1nc(-c2ccccc2)c(Cc2cccc(Cl)c2)c1N [JV-2-16] | 0% | –
44 | NC(=S)n1nc(-c2ccc(C(F)(F)F)cc2)c(Cc2cccc(Cl)c2)c1O [JV-2-12] | 41.7% | –
45 | N=C(N)n1nc(-c2ccc(C(F)(F)F)cc2)c(Cc2cccc(Cl)c2)c1O [JV-2-9-1] | 0% | –
46 | COc1ccc(-c2nn(C(N)=S)c(O)c2CCc2ccc(F)cc2)cc1 [JV-1-94] | – | INFECTIVITY @ 3 μM % Inhibition vs. DMSO control [1]: 0.0%
47 | COc1cccc(Cc2c(-c3ccc([N+](=O)[O-])cc3)nn(C(=N)N)c2O)c1 [EAF-1-21] | 0% | –
48 | Oc1c(Cc2cccc(Cl)c2)c(-c2ccc(F)cc2)nn1C1=NCCN1 [DD-1-22] | 0% | –
49 | COc1ccccc1/N=N/c1c(-c2ccc([N+](=O)[O-])cc2)nn(C(N)=S)c1O [JZ-1-49] | 0% | –
50 | Cc1nn(C(=N)N)c(O)c1CCc1ccc(F)cc1 [JV-1-87] | – | INFECTIVITY @ 3 μM % Inhibition vs. DMSO control [1]: 0.0%
51 | N=C(N)n1nc(-c2ccc(F)cc2)c(Cc2cccc(Cl)c2)c1O [DD-1-21] | 0% | –
